We go through one compound from paper PMC5218480 (PLoS ONE, 2017).

The experiment concerns MV-4-11 cells. Description: Gene expression microarray analysis (Affymetrix PrimeView) and GSEA. The class given is cell-based, human. Also noted: RFU PODN (11730768_x_at) / Fold change /veh PODN (11730768_x_at) / RFU LINC00158 (11744669_a_at) / Fold change /veh LINC00158 (11744669_a_at) / RFU DUSP10 (11751237_a_at) / Fold change /veh DUSP10 (11751237_a_at) / RFU ID3 (11757404_x_at) / Fold change /veh ID3 (11757404_x_at) / RFU PLEKHG5 (11737974_s_at) / Fold change /veh PLEKHG5 (11737974_s_at) / RFU LRRC4B (11730491_at) / Fold change /veh LRRC4B (11730491_at) / RFU GIMAP4 (11747438_a_at) / Fold change /veh GIMAP4 (11747438_a_at) / RFU KRT8 (11758183_x_at) / Fold change /veh KRT8 (11758183_x_at) / RFU CNN1 (11734310_a_at) / Fold change /veh CNN1 (11734310_a_at) / RFU VPS37D (11726825_at) / Fold change /veh VPS37D (11726825_at) / RFU C10orf10 (11716522_x_at) / Fold change /veh C10orf10 (11716522_x_at) / RFU KIR2DL2 /// KIR2DL4 /// KIR2DL5A /// KIR2DL5B /// KIR2DS1 /// KIR2DS2 /// KIR2DS3 /// KIR2DS4 /// KIR3DL3 /// KIR3DL3 /// KIR3DS1 (11738374_at) / Fold change /veh KIR2DL2 /// KIR2DL4 /// KIR2DL5A /// KIR2DL5B /// KIR2DS1 /// KIR2DS2 /// KIR2DS3 /// KIR2DS4 /// KIR3DL3 /// KIR3DL3 /// KIR3DS1 (11738374_at) / RFU C1QL1 (11718748_at) / Fold change /veh C1QL1 (11718748_at) / RFU TMPRSS4 (11747572_a_at) / Fold change /veh TMPRSS4 (11747572_a_at) / RFU HAMP (11756126_x_at) / Fold change /veh HAMP (11756126_x_at) / RFU RNFT2 (11725882_a_at) / Fold change /veh RNFT2 (11725882_a_at) / RFU NR4A2 (11747474_a_at) / Fold change /veh NR4A2 (11747474_a_at) / RFU ABCC12 (11746883_a_at) / Fold change /veh ABCC12 (11746883_a_at) / RFU TMEM136 (11760407_x_at) / Fold change /veh TMEM136 (11760407_x_at) / RFU CLDN22 /// WWC2 (11732394_at) / Fold change /veh CLDN22 /// WWC2 (11732394_at) / RFU HLA-DPB1 (11760878_x_at) / Fold change /veh HLA-DPB1 (11760878_x_at) / RFU SPINT1 (11716480_a_at) / Fold change /veh SPINT1 (11716480_a_at) / RFU GAP43 (11754022_s_at) / Fold change /veh GAP43 (11754022_s_at) / RFU A4GNT (11735810_at) / Fold change /veh A4GNT (11735810_at) / RFU PRB3 (11715151_x_at) / Fold change /veh PRB3 (11715151_x_at) / RFU TUBB4B (11761932_at) / Fold change /veh TUBB4B (11761932_at) / RFU CAPN14 (11732068_a_at) / Fold change /veh CAPN14 (11732068_a_at) / RFU TMCC2 (11721928_a_at) / Fold change /veh TMCC2 (11721928_a_at) / RFU IRGQ (11745062_a_at) / Fold change /veh IRGQ (11745062_a_at) / RFU FAM174B (11720279_a_at) / Fold change /veh FAM174B (11720279_a_at) / RFU TMPRSS4 (11748680_a_at) / Fold change /veh TMPRSS4 (11748680_a_at) / RFU FAM212B (11763350_a_at) / Fold change /veh FAM212B (11763350_a_at) / RFU PLEKHG5 (11743358_a_at) / Fold change /veh PLEKHG5 (11743358_a_at) / RFU ZSCAN30 (11745921_a_at) / Fold change /veh ZSCAN30 (11745921_a_at) / RFU CMKLR1 (11741424_a_at) / Fold change /veh CMKLR1 (11741424_a_at) / RFU LOC101060620 /// MAPK8IP1 (11723275_at) / Fold change /veh LOC101060620 /// MAPK8IP1 (11723275_at) / RFU SPTSSB (11747773_x_at) / Fold change /veh SPTSSB (11747773_x_at) / RFU PRSS12 (11739890_at) / Fold change /veh PRSS12 (11739890_at) / RFU BIN1 (11741810_x_at) / Fold change /veh BIN1 (11741810_x_at) / RFU WNT11 (11732464_a_at) / Fold change /veh WNT11 (11732464_a_at) / RFU C10orf10 (11716521_a_at) / Fold change /veh C10orf10 (11716521_a_at) / RFU C5orf56 (11738089_at) / Fold change /veh C5orf56 (11738089_at) / RFU CYB561 (11721691_x_at) / Fold change /veh CYB561 (11721691_x_at) / RFU ANKRD19P (11752326_a_at) / Fold change /veh ANKRD19P (11752326_a_at) / RFU OR2T12 /// OR2T33 /// OR2T8 (11738714_s_at) / Fold change /veh OR2T12 /// OR2T33 /// OR2T8 (11738714_s_at) / RFU VCAN (11748164_a_at) / Fold change /veh VCAN (11748164_a_at) / RFU JSRP1 (11732532_at) / Fold change /veh JSRP1 (11732532_at) / RFU KRTAP10-11 (11738290_x_at) / Fold change /veh KRTAP10-11 (11738290_x_at) / RFU MYO3A (11730013_a_at) / Fold change /veh MYO3A (11730013_a_at) / RFU EBF3 (11725865_a_at) / Fold change /veh EBF3 (11725865_a_at) / RFU CAMK2N1 (11719241_x_at) / Fold change /veh CAMK2N1 (11719241_x_at) / RFU C5orf56 (11738088_a_at) / Fold change /veh C5orf56 (11738088_a_at) / RFU OLFML3 (11715873_a_at) / Fold change /veh OLFML3 (11715873_a_at) / RFU LOC100653217 /// NTM (11731650_a_at) / Fold change /veh LOC100653217 /// NTM (11731650_a_at) / RFU MAPK11 (11762145_a_at) / Fold change /veh MAPK11 (11762145_a_at) / RFU FIZ1 (11724087_x_at) / Fold change /veh FIZ1 (11724087_x_at) / RFU OASL (11726364_x_at) / Fold change /veh OASL (11726364_x_at) / RFU SOX15 (11748057_x_at) / Fold change /veh SOX15 (11748057_x_at) / RFU CD79A (11719716_a_at) / Fold change /veh CD79A (11719716_a_at) / RFU HIST1H1D (11736915_at) / Fold change /veh HIST1H1D (11736915_at) / RFU CASKIN2 (11723855_a_at) / Fold change /veh CASKIN2 (11723855_a_at) / RFU LOC730098 (11760151_x_at) / Fold change /veh LOC730098 (11760151_x_at) / RFU OR4N2 (11742367_at) / Fold change /veh OR4N2 (11742367_at) / RFU PRRT2 (11749266_a_at) / Fold change /veh PRRT2 (11749266_a_at) / RFU SNX32 (11753110_a_at) / Fold change /veh SNX32 (11753110_a_at) / RFU CDHR5 (11726645_a_at) / Fold change /veh CDHR5 (11726645_a_at) / RFU RCAN1 (11760418_a_at) / Fold change /veh RCAN1 (11760418_a_at) / RFU FAM167A (11723789_a_at) / Fold change /veh FAM167A (11723789_a_at) / RFU FAM26E (11764081_at) / Fold change /veh FAM26E (11764081_at) / RFU ISYNA1 (11749810_s_at) / Fold change /veh ISYNA1 (11749810_s_at) / RFU ACY1 (11761880_at) / Fold change /veh ACY1 (11761880_at) / RFU 11764098_at / Fold change /veh 11764098_at / RFU SAMD14 (11745864_x_at) / Fold change /veh SAMD14 (11745864_x_at) / RFU NPB (11741838_a_at) / Fold change /veh NPB (11741838_a_at) / RFU TMPRSS6 (11731388_a_at) / Fold change /veh TMPRSS6 (11731388_a_at) / RFU KRTAP10-2 (11738614_at) / Fold change /veh KRTAP10-2 (11738614_at) / RFU ARHGAP8 /// PRR5-ARHGAP8 (11727945_x_at) / Fold change /veh ARHGAP8 /// PRR5-ARHGAP8 (11727945_x_at) / RFU KRTAP5-7 /// NADSYN1 (11734609_at) / Fold change /veh KRTAP5-7 /// NADSYN1 (11734609_at) / RFU RASL12 (11751679_a_at) / Fold change /veh RASL12 (11751679_a_at) / RFU CDKN2B (11736163_a_at) / Fold change /veh CDKN2B (11736163_a_at) / RFU PRF1 (11729649_at) / Fold change /veh PRF1 (11729649_at) / RFU, ZNF638 /// ZNF638-IT1 / Fold change vs veh, ZNF638 /// ZNF638-IT1 / RFU, PANK3 / Fold change vs veh, PANK3 / RFU, SH3YL1 / Fold change vs veh, SH3YL1 / RFU, ZEB2 / Fold change vs veh, ZEB2 / RFU, NRIP1 / Fold change vs veh, NRIP1 / RFU, PTTG1IP / Fold change vs veh, PTTG1IP / RFU, CAPN2 / Fold change vs veh, CAPN2 / RFU, MED14 / Fold change vs veh, MED14 / RFU, SNORA58 / Fold change vs veh, SNORA58 / RFU, C1orf63 / Fold change vs veh, C1orf63 / RFU, LRRFIP1 / Fold change vs veh, LRRFIP1 / RFU, NDUFAF7 / Fold change vs veh, NDUFAF7 / RFU, SLC12A2 / Fold change vs veh, SLC12A2 / RFU, IBTK / Fold change vs veh, IBTK / RFU, ESF1 / Fold change vs veh, ESF1 / Fold change vs veh, TMEM50B / RFU, TAOK1 / Fold change vs veh, TAOK1 / RFU, ACBD3 / Fold change vs veh, ACBD3 / RFU, TMA16 / Fold change vs veh, TMA16 / RFU, RWDD3 / Fold change vs veh, RWDD3 / RFU, BCAT1 / Fold change vs veh, BCAT1 / RFU, EDEM3 / Fold change vs veh, EDEM3 / RFU, TMEM33 / Fold change vs veh, TMEM33 / RFU, WDR75 / Fold change vs veh, WDR75 / RFU, AHCTF1 / Fold change vs veh, AHCTF1 / RFU, TFRC / Fold change vs veh, TFRC / RFU, ZDHHC17 / Fold change vs veh, ZDHHC17 / RFU, NOM1 / Fold change vs veh, NOM1 / RFU, ARL8B / Fold change vs veh, ARL8B / RFU, ZBTB11 / Fold change vs veh, ZBTB11 / RFU, TAMM41 / Fold change vs veh, TAMM41 / RFU, KIAA1704 /// LOC100996395 / Fold change vs veh, KIAA1704 /// LOC100996395 / RFU, ING1 / Fold change vs veh, ING1 / RFU, TRMT61B / Fold change vs veh, TRMT61B / RFU, FUBP3 / Fold change vs veh, FUBP3 / RFU, TP53 / Fold change vs veh, TP53 / RFU, TNKS2 / Fold change vs veh, TNKS2 / RFU, ZFP14 / Fold change vs veh, ZFP14 / RFU, ACTR2 / Fold change vs veh, ACTR2 / RFU, PPP3R1 / Fold change vs veh, PPP3R1 / RFU, PIK3R1 / Fold change vs veh, PIK3R1 / RFU, HNRNPA1 / Fold change vs veh, HNRNPA1 / RFU, RNF170 / Fold change vs veh, RNF170 / RFU, ZNF28 / Fold change vs veh, ZNF28 / RFU, RNGTT / Fold change vs veh, RNGTT / RFU, OGT / Fold change vs veh, OGT / RFU, BRD1 / Fold change vs veh, BRD1 / RFU, MARS / Fold change vs veh, MARS / RFU, ZNF655 / Fold change vs veh, ZNF655 / RFU, FAHD1 / Fold change vs veh, FAHD1 / RFU, BDP1 / Fold change vs veh, BDP1 / RFU, LRRCC1 / Fold change vs veh, LRRCC1 / RFU, ARID1A / Fold change vs veh, ARID1A / RFU, ZNF146 / Fold change vs veh, ZNF146 / RFU, ZNF330 / Fold change vs veh, ZNF330 / RFU, GPN3 / Fold change vs veh, GPN3 / RFU, C9orf123 / Fold change vs veh, C9orf123 / RFU, N4BP2L2 / Fold change vs veh, N4BP2L2 / RFU, ARFIP1 / Fold change vs veh, ARFIP1 / RFU, FAM179B / Fold change vs veh, FAM179B / RFU, BCL10 / Fold change vs veh, BCL10 / RFU, UHRF1BP1L / Fold change vs veh, UHRF1BP1L / RFU, BET1 / Fold change vs veh, BET1 / RFU, CNOT2 / Fold change vs veh, CNOT2 / RFU, ZNF268 / Fold change vs veh, ZNF268 / Fold change vs veh, ZNF507 / RFU, DGCR2 / Fold change vs veh, DGCR2 / RFU, WDSUB1 / Fold change vs veh, WDSUB1 / Fold change vs veh, HSP90B1 /// MIR3652 / RFU, ADSS / Fold change vs veh, ADSS / RFU, GK / Fold change vs veh, GK / RFU, ZNF148 / Fold change vs veh, ZNF148 / RFU, TAF9 / Fold change vs veh, TAF9 / RFU, SLC1A5 / Fold change vs veh, SLC1A5 / RFU, SLMO2 / Fold change vs veh, SLMO2 / RFU, ABCC4 / Fold change vs veh, ABCC4 / RFU, LOC101060439 /// RAP1B / Fold change vs veh, LOC101060439 /// RAP1B / RFU, RFX7 / Fold change vs veh, RFX7 / RFU, GTPBP10 / Fold change vs veh, GTPBP10 / RFU, CNEP1R1 / Fold change vs veh, CNEP1R1 / RFU, BIVM-ERCC5 /// ERCC5 / Fold change vs veh, BIVM-ERCC5 /// ERCC5 / RFU, ILF3 / Fold change vs veh, ILF3 / RFU 11762660_at / Fold change /veh 11762660_at / RFU VCAN (11757783_s_at) / Fold change /veh VCAN (11757783_s_at) / RFU DDX43 (11728927_at) / Fold change /veh DDX43 (11728927_at) / RFU KRT8 (11758188_x_at) / Fold change /veh KRT8 (11758188_x_at) / RFU NKD1 (11759106_at) / Fold change /veh NKD1 (11759106_at) / RFU SRD5A1 (11742802_a_at) / Fold change /veh SRD5A1 (11742802_a_at) / RFU TPSAB1 /// TPSB2 (11721975_s_at) / Fold change /veh TPSAB1 /// TPSB2 (11721975_s_at) / RFU GSTM3 (11746129_a_at) / Fold change /veh GSTM3 (11746129_a_at) / RFU IL23R (11737362_x_at) / Fold change /veh IL23R (11737362_x_at) / RFU TMEM51 (11727254_a_at) / Fold change /veh TMEM51 (11727254_a_at) / RFU PIWIL2 (11732686_x_at) / Fold change /veh PIWIL2 (11732686_x_at) / RFU ORM1 (11744905_x_at) / Fold change /veh ORM1 (11744905_x_at) / RFU CCDC152 (11743942_at) / Fold change /veh CCDC152 (11743942_at) / RFU ECM1 (11717891_a_at) / Fold change /veh ECM1 (11717891_a_at) / RFU IL23R (11748794_a_at) / Fold change /veh IL23R (11748794_a_at) / RFU TNFAIP8L3 (11732012_x_at) / Fold change /veh TNFAIP8L3 (11732012_x_at) / RFU MBOAT4 (11741988_at) / Fold change /veh MBOAT4 (11741988_at) / RFU 11764193_at / Fold change /veh 11764193_at / RFU TMEM53 (11763286_at) / Fold change /veh TMEM53 (11763286_at) / RFU MAGEB2 (11727129_at) / Fold change /veh MAGEB2 (11727129_at) / RFU TMEM200A (11744735_a_at) / Fold change /veh TMEM200A (11744735_a_at) / RFU CCDC152 (11751479_a_at) / Fold change /veh CCDC152 (11751479_a_at) / RFU FAM211A (11726209_a_at) / Fold change /veh FAM211A (11726209_a_at) / RFU RGS16 (11746705_a_at) / Fold change /veh RGS16 (11746705_a_at) / RFU VCAN (11755009_s_at) / Fold change /veh VCAN (11755009_s_at) / RFU RHOB (11743442_s_at) / Fold change /veh RHOB (11743442_s_at) / RFU RGS16 (11720943_a_at) / Fold change /veh RGS16 (11720943_a_at) / RFU RGS16 (11720944_at) / Fold change /veh RGS16 (11720944_at) / RFU, VPS4B / Fold change vs veh, VPS4B / RFU, CREB1 / Fold change vs veh, CREB1 / RFU, DNAJC13 / Fold change vs veh, DNAJC13 / RFU, GNAQ / Fold change vs veh, GNAQ / RFU, CDK5R1 / Fold change vs veh, CDK5R1 / RFU, ZRANB3 / Fold change vs veh, ZRANB3 / RFU, CUL4A / Fold change vs veh, CUL4A / RFU, CCNY / Fold change vs veh, CCNY / RFU, UFL1 / Fold change vs veh, UFL1 / RFU, COG3 / Fold change vs veh, COG3 / RFU, DIAPH2 / Fold change vs veh, DIAPH2 / RFU, SKA2 / Fold change vs veh, SKA2 / RFU, AFF3 / Fold change vs veh, AFF3 / RFU, LMF1 / Fold change vs veh, LMF1 / RFU, IPO11 / Fold change vs veh, IPO11 / RFU, DFFB / Fold change vs veh, DFFB / RFU, FOXP1 / Fold change vs veh, FOXP1 / RFU, CARD8 / Fold change vs veh, CARD8 / RFU, STRN3 / Fold change vs veh, STRN3 / RFU, ADK / Fold change vs veh, ADK / RFU, RASSF2 / Fold change vs veh, RASSF2 / RFU, WIPF1 / Fold change vs veh, WIPF1 / RFU, LARP1B / Fold change vs veh, LARP1B / RFU, RASA1 / Fold change vs veh, RASA1 / RFU, RB1 / Fold change vs veh, RB1 / RFU, PPFIA1 / Fold change vs veh, PPFIA1 / RFU, MAT2A / Fold change vs veh, MAT2A / RFU, CCT5 / Fold change vs veh, CCT5 / RFU, WDR92 / Fold change vs veh, WDR92 / RFU, CUX1 / Fold change vs veh, CUX1 / RFU, TTC7A / Fold change vs veh, TTC7A / RFU, TMEM135 / Fold change vs veh, TMEM135 / RFU, DEPTOR / Fold change vs veh, DEPTOR / RFU, CPM / Fold change vs veh, CPM / RFU, DNAJB6 / Fold change vs veh, DNAJB6 / RFU, CACNA2D3 / Fold change vs veh, CACNA2D3 / RFU, DTX4 / Fold change vs veh, DTX4 / RFU, TFCP2 / Fold change vs veh, TFCP2 / RFU, GMCL1 /// GMCL1P1 / Fold change vs veh, GMCL1 /// GMCL1P1 / RFU, AEBP2 / Fold change vs veh, AEBP2 / RFU, SNHG1 /// SNORD22 /// SNORD25 /// SNORD26 /// SNORD27 /// SNORD28 /// SNORD29 /// SNORD31 / Fold change vs veh, SNHG1 /// SNORD22 /// SNORD25 /// SNORD26 /// SNORD27 /// SNORD28 /// SNORD29 /// SNORD31 / Fold change (Aza/veh), C12orf56 (ProbeSet 11735607_a_at) / Fold change (ACY-1035/veh), C12orf56 (ProbeSet 11735607_a_at) / Fold change (Aza/veh), FGFR1OP (ProbeSet 11751329_s_at) / Fold change (ACY-1035/veh), FGFR1OP (ProbeSet 11751329_s_at) / Fold change (Aza/veh), VPS36 (ProbeSet 11739960_a_at) / Fold change (ACY-1035/veh), VPS36 (ProbeSet 11739960_a_at) / RFU SYPL1 (11715823_x_at) / Fold change /veh SYPL1 (11715823_x_at) / RFU IGFBP7 (11715501_s_at) / Fold change /veh IGFBP7 (11715501_s_at) / RFU REEP3 (11722064_at) / Fold change /veh REEP3 (11722064_at) / RFU IGLL1 (11728026_x_at) / Fold change /veh IGLL1 (11728026_x_at): dose or concentration left out as unconfirmed. The conditions noted are these: MV-4-11 cells, 48 hours.

Consider `Nc1ccc(-c2cccs2)cc1NC(=O)c1ccc2c(c1)cc(C1CC1)n2CCN1CCOCC1` [ACY-1035], for which the “Fold change /veh GSTM3 (11746129_a_at)” value was found to be 0.96.
